Type in all cases: cell-based
For one test, the system named is E. coli Neumann. Put plainly: MIC, serial agar dilution. The note with it: Escherichia coli. As to the method:
(§1) The minimum inhibitory concentrations (MICs) were determined in serial dilution tests using Iso-Sensitest Agar (Oxoid). For each test substance, a series of agar plates was prepared which contained concentrations of the active compound which decreased as a result of dilution to twice the volume each time. The agar plates were inoculated using a Multipoint Inoculator (Denley). For inoculation, overnight cultures of the pathogens were used which had previously been diluted to such a concentration that each inoculation point contained approximately 10^4 colony-forming particles. The inoculated agar plates were incubated at 37° C., and the microbial growth was determined after approximately 20 hours. The MIC value (μg/ml) indicates the lowest concentration of active compound at which no growth was discernible with the naked eye.

In test [1] the test system is Enterobater cloaceae 2427. The experiment in a line: MIC, serial agar dilution. As to the method:
as §1

Test [2] concerns Enterococcus faecalis 9790. Put plainly: MIC, serial agar dilution. On the procedure:
as §1

Test [3] concerns Staphylococcus aureus ATTC 29213. Put plainly: MIC, serial agar dilution. As to the method: as §1
Test [4] deals with Enterococcus faecalis 27101. The experiment in a line: MIC, serial agar dilution. As to the method:
as §1

Test [5] has as its system Staphylococcus aureus ICB 25701. Put plainly: MIC, serial agar dilution. On the procedure:
as §1

The next test deals with Enterobater aer.ICB 5240. The experiment in a line: MIC, serial agar dilution. As to the method: as §1
The subject of test [6] is Staphylococcus aureus 133. The experiment in a line: MIC, serial agar dilution. As to the method:
as §1

Another test deals with E. coli G293 Lh. Put plainly: MIC, veterinary microorganisms. To be noted: Escherichia coli, G293LH, 20 h. As to the method: as §1
(§2) Table 3 lists MIC values of compounds according to the invention against microorganisms which aye specific to veterinary medicine. The comparison compound shown in this case is enrofloxacin (ENRO), which is a therapeutic used in veterinary medicine.

The subject of a further test is Staph. Z 318 Lh. The experiment in a line: MIC, veterinary microorganisms. To be noted: 20 h. As to the method: as §1, §2
A further test deals with Staph. Z433-4 LH. The experiment in a line: MIC, veterinary microorganisms. The note with it: 20 h. As to the method: as §1, §2
The test system of the next test is Staph. Ky 469 We. Put plainly: MIC, veterinary microorganisms. The note with it: 20 h. On the procedure: as §1, §2
A further test deals with E. coli 21 Bui. The experiment in a line: MIC, veterinary microorganisms. To be noted: Escherichia coli, 20 h. As to the method: as §1, §2
Where [7] appears, read: E. coli Neumann, Iso-Sensitest Agar, 37° C., approximately 20 hours, read-out: MIC.
Where [8] appears, read: Enterobater cloaceae 2427, Iso-Sensitest Agar, 37° C., approximately 20 hours, read-out: MIC.
[9] abbreviates: Enterococcus faecalis 9790, Iso-Sensitest Agar, 37° C., approximately 20 hours, read-out: MIC.
[10] abbreviates: ATTC29213, Staphylococcus aureus ATTC 29213, Iso-Sensitest Agar, 37° C., approximately 20 hours, read-out: MIC.
The mark [11] stands for this setting: Enterococcus faecalis 27101, Iso-Sensitest Agar, 37° C., approximately 20 hours, read-out: MIC.
Setting [12] is: Staphylococcus aureus, ICB25701, 20 h.
Where [13] appears, read: Enterobater aer.ICB 5240, Iso-Sensitest Agar, 37° C., approximately 20 hours, read-out: MIC.
The mark [14] stands for this setting: Staphylococcus aureus 133, Iso-Sensitest Agar, 37° C., approximately 20 hours, read-out: MIC.
The mark [15] stands for this setting: Staphylococcus aureus, ATTC29213, 20 h.
[16] abbreviates: ICB25701, Staphylococcus aureus ICB 25701, Iso-Sensitest Agar, 37° C., approximately 20 hours, read-out: MIC.

Values after ≈ are worked out from the molar mass of the structure shown. Counter-ions that a name gives are not always drawn. Like-named read-outs stand apart in the source and are kept apart here.

Take `C=Cc1c(F)c(N2C[C@@H]3CCCN[C@@H]3C2)c(F)c2c1c(=O)c(C(=O)O)cn2C1CC1` (relative stereo) [Compound 2, 1-cyclopropyl-7-(cis-2,8-diazabicyclo[4.3.0]non-8-yl)-6,8-difluoro-1,4-dihydro-4-oxo-5-vinyl-3-quinolinecarboxylic acid]: the MIC in the test on E. coli Neumann (setting [7]) is 0.06 µg/mL (≈ 0.144 µM); in [1] (setting [8]), 0.125 µg/mL (≈ 0.301 µM); in test [2] (setting [9]), 0.125 µg/mL (≈ 0.301 µM); in test [3] (setting [10]), 0.06 µg/mL (≈ 0.144 µM); in test [4] (setting [11]), 0.125 µg/mL (≈ 0.301 µM); in test [5] (setting [12]), 1 µg/mL (≈ 2.41 µM). Besides, the MIC in the test on Enterobater aer.ICB 5240 (setting [13]) came to 16 µg/mL (≈ 38.5 µM); in [6] (setting [14]), 0.06 µg/mL (≈ 0.144 µM).

Take `C=Cc1c(F)c(N2CCN(C)CC2)c(F)c2c1c(=O)c(C(=O)O)cn2C1CC1` [Compound 1, 1-cyclopropyl-6,8-difluoro-1,4-dihydro-4-oxo-7-(4-methyl-1-piperazinyl)-4-oxo-5-vinyl-3-quinolinecarboxylic acid]: the MIC in the test on E. coli Neumann (setting [7]) came out at 0.06 µg/mL (≈ 0.154 µM); in test [1] (20 h), 0.25 µg/mL (≈ 0.642 µM); in test [2] (Enterococcus faecalis, 9790, 20 h), 1 µg/mL (≈ 2.57 µM); in [3] (setting [15]), 0.25 µg/mL (≈ 0.642 µM); in test [4] (Enterococcus faecalis, 27101, 20 h), 1 µg/mL (≈ 2.57 µM); in [5] (setting [16]), 64 µg/mL (≈ 164 µM). For the same molecule, the MIC was 32 µg/mL (≈ 82.2 µM) in the test on Enterobater aer.ICB 5240 (20 h) and 0.25 µg/mL (≈ 0.642 µM) in test [6] (Staphylococcus aureus, 133, 20 h).

Turning to `C=Cc1c(F)c(N2C[C@@H]3CCCN[C@@H]3C2)c(F)c2c1c(=O)c(C(=O)O)cn2C1CC1` [Compound 3, 1-cyclopropyl-7-(S,S-2,8-diazabicyclo[4.3.0]non-8-yl)-6,8-difluoro-1,4-dihydro-4-oxo-5-vinyl-3-quinolinecarboxylic acid], the MIC was at most 0.015 µg/mL in the test with E. coli Neumann (setting [7]); 0.06 µg/mL (≈ 0.144 µM) in test [1] (setting [8]); 0.125 µg/mL (≈ 0.301 µM) in test [2] (setting [9]); 0.03 µg/mL (≈ 0.0722 µM) in test [3] (setting [10]); 0.125 µg/mL (≈ 0.301 µM) in test [4] (setting [11]); 0.5 µg/mL (≈ 1.2 µM) in test [5] (setting [12]). Further, the minimal inhibitory concentration (MIC) against Enterobater aer.ICB 5240 (20 h) came out at 8 µg/mL (≈ 19.3 µM); in test [6] (setting [14]) it was 0.03 µg/mL (≈ 0.0722 µM).

Turning to `C=Cc1c(F)c(N2CCC(N)C2)c(F)c2c1c(=O)c(C(=O)O)cn2C1CC1.Cl` (stereo not shown) [Compound 5, 7-(3-aminopyrrolidin-1-yl)-1-cyclopropyl-6,8-difluoro-1,4-dihydro-4-oxo-5-vinyl-3-quinolinecarboxylic acid hydrochloride], the MIC with E. coli Neumann (setting [7]) is at most 0.015 µg/mL; in test [1] (setting [8]), at most 0.015 µg/mL; in test [2] (setting [9]), 0.125 µg/mL; in [3] (setting [10]), at most 0.015 µg/mL; in test [4] (setting [11]), 0.06 µg/mL; in test [5] (setting [16]) it was 2 µg/mL. In addition, the MIC was determined as 4 µg/mL with Enterobater aer.ICB 5240 (setting [13]); 0.03 µg/mL in [6] (setting [14]); 32 µg/mL with E. coli G293 Lh; 2 µg/mL against Staph. Z 318 Lh; 0.03 µg/mL against Staph. Z433-4 LH; 0.03 µg/mL in the test on Staph. Ky 469 We. Besides, in the test on E. coli 21 Bui, inhibition of growth (MIC) required 16 µg/mL.

With `C=Cc1c(F)c(N2CC3CC=CC(N)C3C2)c(F)c2c1c(=O)c(C(=O)O)cn2C1CC1` (stereo not shown) [Compound 6, 7-(4-amino-1,3,3a,4,7,7a-hexahydro-isoindol-2-yl)-1-cyclopropyl-6,8-difluoro-1,4-dihydro-4-oxo-5-vinyl-3-quinolinecarboxylic acid], the MIC in the test on E. coli Neumann (setting [7]) was 0.015 µg/mL (≈ 0.0351 µM); in test [1] (setting [8]), 0.125 µg/mL (≈ 0.292 µM); in test [2] (setting [9]) it was 0.03 µg/mL (≈ 0.0702 µM); in test [3] (setting [10]) it was at most 0.015 µg/mL; in test [4] (setting [11]), 0.03 µg/mL (≈ 0.0702 µM); in test [5] (setting [16]), 0.03 µg/mL (≈ 0.0702 µM). Moreover, the MIC in the test on Enterobater aer.ICB 5240 (setting [13]) is 4 µg/mL (≈ 9.36 µM); in test [6] (setting [14]), at most 0.015 µg/mL; with E. coli G293 Lh, 8 µg/mL (≈ 18.7 µM); with Staph. Z 318 Lh it was 0.06 µg/mL (≈ 0.14 µM); against Staph. Z433-4 LH, 0.015 µg/mL (≈ 0.0351 µM); in the test with Staph. Ky 469 We, 0.015 µg/mL (≈ 0.0351 µM). This molecule gave an MIC in the test on E. coli 21 Bui of 4 µg/mL (≈ 9.36 µM).

In the case of `C=Cc1c(F)c(N2CC3CC=CC(NC)C3C2)c(F)c2c1c(=O)c(C(=O)O)cn2C1CC1` (stereo not shown) [Compound 7, 7-(4-methylamino-1,3,3a,4,7,7a-hexahydro-isoindol-2-yl)-1-cyclopropyl-6,8-difluoro-1,4-dihydro-4-oxo-5-vinyl-3-quinolinecarboxylic acid], the MIC with E. coli Neumann (setting [7]) was 0.03 µg/mL (≈ 0.068 µM); in [1] (setting [8]), 0.125 µg/mL (≈ 0.283 µM); in test [2] (setting [9]), 0.03 µg/mL (≈ 0.068 µM); in test [3] (setting [10]) it was at most 0.015 µg/mL; in test [4] (setting [11]), 0.03 µg/mL (≈ 0.068 µM); in test [5] (setting [16]) it was 0.03 µg/mL (≈ 0.068 µM). Further, the MIC was 8 µg/mL (≈ 18.1 µM) against Enterobater aer.ICB 5240 (20 h) and at most 0.015 µg/mL in test [6] (setting [14]).

Turning to `C=Cc1c(F)c(N2CC3CCOC3(CN)C2)c(F)c2c1c(=O)c(C(=O)O)cn2C1CC1` (stereo not shown) [Compound 11, 7-(6a-aminomethylhexahydro-furo[2,3-c]pyrrol-5-yl)-1-cyclopropyl-6,8-difluoro-1,4-dihydro-4-oxo-5-vinyl-3-quinolinecarboxyllc acid hydrochloride], the MIC with E. coli Neumann (setting [7]) was 0.03 µg/mL; in test [1] (setting [8]), 0.125 µg/mL; in test [2] (setting [9]), 0.125 µg/mL; in test [3] (setting [10]), 0.015 µg/mL; in test [4] (setting [11]), 0.125 µg/mL; in [5] (setting [12]) it was 0.5 µg/mL. The results for the MIC (in the test on Enterobater aer.ICB 5240 (20 h); in [6] (setting [14])) were 32 µg/mL and 0.015 µg/mL, respectively.

On to `CCc1c(F)c(N2CCN(C)CC2)c(F)c2c1c(=O)c(C(=O)O)cn2C1CC1` [Compound K, 1-cyclopropyl-5-ethyl-6,8-difluoro-1,4-dihydro-7-(4-methyl-1-piperazinyl)-4-oxo-3-quinolinecarboxylic acid, reference compound], for which the MIC against E. coli Neumann (20 h) was found to be 0.25 µg/mL (≈ 0.639 µM); in [1] (20 h) it was 1 µg/mL (≈ 2.55 µM); in [2] (setting [9]) it was 64 µg/mL (≈ 164 µM); in test [3] (setting [15]), 8 µg/mL (≈ 20.4 µM); in test [4] (setting [11]), 64 µg/mL (≈ 164 µM); in test [5] (setting [16]), 64 µg/mL (≈ 164 µM). Besides, the MIC in the test with Enterobater aer.ICB 5240 (setting [13]) is at most 128 µg/mL; in [6] (setting [14]) it was 16 µg/mL (≈ 40.9 µM).

On to `CCN1CCN(c2cc3c(cc2F)c(=O)c(C(=O)O)cn3C2CC2)CC1` [ENRO, enrofloxacin, reference compound], for which the MIC in the test on E. coli G293 Lh was 32 µg/mL (≈ 89 µM); against Staph. Z 318 Lh, 8 µg/mL (≈ 22.3 µM); in the test on Staph. Z433-4 LH it was 0.25 µg/mL (≈ 0.696 µM); in the test on Staph. Ky 469 We it was 0.12 µg/mL (≈ 0.334 µM); in the test on E. coli 21 Bui it was 32 µg/mL (≈ 89 µM).

The values above are taken from patent publication US5659038A, “5-vinyl-and 5-ethinyl-quinolone- and -naphthyridone-carboxylic acids” (Bayer Aktiengesellschaft, priority 1994, dated 1997).
